ChEMBL document CHEMBL5390256, “Sticklac-Derived Natural Compounds Inhibiting RNase H Activity of HIV-1 Reverse Transcriptase” (J Nat Prod, 2023)
Calls of active or inactive are those of the source. No cut-off for these calls is given here.

How the values were obtained:
[1] = target: T1, Human immunodeficiency virus type 1 reverse transcriptase (Human immunodeficiency virus 1, UniProt Q72547); test: Inhibition of HIV-1 RNase H activity
[2] = target: Human immunodeficiency virus type 1 reverse transcriptase (Human immunodeficiency virus 1) (UniProt Q72547); test: Inhibition of HIV-1 RNase H using 5'-GAUCUGAGCCUGGGAGCU-3'-FAM RNA/BHQ-5'-AGCTCCCAGGCTCAGATC-3' DNA as substrate at 50 uM measured after 60 mins by FRET analysis
[3] = target: T1, Human immunodeficiency virus type 1 reverse transcriptase; test: Inhibition of HIV-1 RNase H using 5'-GAUCUGAGCCUGGGAGCU-3'-FAM RNA/BHQ-5'-AGCTCCCAGGCTCAGATC-3' DNA as substrate measured after 60 mins by FRET analysis
[4] = tested on: Human immunodeficiency virus 1; test: Antiviral activity against HIV-1 NL4-3 infected in human R5-MaRBLE reporter cells assessed as inhibition of viral replication measured after 7 days by Dual-Glo luciferase reporter assay; format: functional, organism-based
[5] = Cytotoxicity activity against human R5-MaRBLE reporter cells assessed as effect on Renilla luciferase activity measured after 7 days by Dual-Glo luciferase reporter assay; format: toxicity, cell-based; conditions: time 7 day
[6] = target: DNA (cytosine-5)-methyltransferase 1 (Homo sapiens, UniProt P26358); test: Competitive inhibition of DNMT1 (unknown origin)
DNA (cytosine-5)-methyltransferase 1, sequence (P26358 whole entry): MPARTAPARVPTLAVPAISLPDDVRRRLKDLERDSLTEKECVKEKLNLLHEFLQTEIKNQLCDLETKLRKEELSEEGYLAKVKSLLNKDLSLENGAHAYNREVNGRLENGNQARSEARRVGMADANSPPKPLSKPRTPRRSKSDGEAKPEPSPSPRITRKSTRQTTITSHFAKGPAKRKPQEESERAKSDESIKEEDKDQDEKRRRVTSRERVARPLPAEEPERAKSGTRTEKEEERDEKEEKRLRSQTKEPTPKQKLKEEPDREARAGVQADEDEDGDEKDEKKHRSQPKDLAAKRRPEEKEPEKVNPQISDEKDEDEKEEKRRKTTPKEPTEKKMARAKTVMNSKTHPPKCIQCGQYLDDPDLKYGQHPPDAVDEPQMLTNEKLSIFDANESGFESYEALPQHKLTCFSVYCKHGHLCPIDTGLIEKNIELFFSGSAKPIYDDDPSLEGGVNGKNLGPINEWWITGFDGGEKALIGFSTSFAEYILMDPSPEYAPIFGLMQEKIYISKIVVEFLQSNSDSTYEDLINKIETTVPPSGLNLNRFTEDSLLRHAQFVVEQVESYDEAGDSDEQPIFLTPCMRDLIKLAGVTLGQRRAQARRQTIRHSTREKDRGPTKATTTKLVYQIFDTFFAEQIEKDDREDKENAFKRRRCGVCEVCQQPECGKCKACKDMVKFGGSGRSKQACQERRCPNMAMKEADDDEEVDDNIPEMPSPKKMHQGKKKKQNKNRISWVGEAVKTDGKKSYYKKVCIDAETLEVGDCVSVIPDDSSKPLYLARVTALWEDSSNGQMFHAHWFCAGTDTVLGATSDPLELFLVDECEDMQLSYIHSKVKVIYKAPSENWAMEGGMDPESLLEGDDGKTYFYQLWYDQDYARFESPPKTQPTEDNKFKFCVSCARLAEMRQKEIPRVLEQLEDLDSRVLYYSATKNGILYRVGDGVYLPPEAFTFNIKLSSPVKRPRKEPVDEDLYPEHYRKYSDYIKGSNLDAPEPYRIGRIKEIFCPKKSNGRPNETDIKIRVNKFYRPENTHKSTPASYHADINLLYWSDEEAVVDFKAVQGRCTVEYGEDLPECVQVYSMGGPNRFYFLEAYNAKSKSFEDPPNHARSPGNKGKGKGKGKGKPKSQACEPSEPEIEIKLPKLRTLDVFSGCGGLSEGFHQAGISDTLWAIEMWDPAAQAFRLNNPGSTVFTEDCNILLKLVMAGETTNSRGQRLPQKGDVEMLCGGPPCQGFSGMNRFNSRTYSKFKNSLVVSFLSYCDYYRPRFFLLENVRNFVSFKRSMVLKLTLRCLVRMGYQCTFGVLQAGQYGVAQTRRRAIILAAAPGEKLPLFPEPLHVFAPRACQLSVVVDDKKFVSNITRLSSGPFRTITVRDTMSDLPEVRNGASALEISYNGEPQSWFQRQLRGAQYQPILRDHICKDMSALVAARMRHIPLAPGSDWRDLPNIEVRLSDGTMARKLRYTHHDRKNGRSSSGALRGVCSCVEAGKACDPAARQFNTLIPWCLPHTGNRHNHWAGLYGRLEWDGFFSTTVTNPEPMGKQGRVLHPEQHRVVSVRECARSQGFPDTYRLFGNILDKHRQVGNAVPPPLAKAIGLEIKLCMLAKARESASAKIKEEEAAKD

Row | SMILES | IC50 [1] [µM] | inhibition [2] | IC50 [3] [µM] | EC50 ([4]; Human immunodeficiency virus 1, NL4-3, R5-MaRBLE, 168 h, read-out: EC50) [µM] | CC50 at 168 h [5] [µM] | Ki [6] [µM] | EC50 ([4]; r5-marble)
1 | O=C(O)c1cc(O)c2c(c1)[C@@H]([C@@H]1c3cc(C(=O)O)cc(O)c3C(=O)c3c(O[C@@H]4O[C@H](CO)[C@@H](O)[C@H](O)[C@H]4O)cccc31)c1cccc(O[C@H]3O[C@@H](CO)[C@H](O)[C@@H](O)[C@@H]3O)c1C2=O | 2 | – | – | – | – | – | –
2 | O=C(O)c1cc(O)c2c(c1)[C@@H]([C@H]1c3cc(C(=O)O)cc(O)c3C(=O)c3c(O[C@H]4O[C@@H](CO)[C@H](O)[C@@H](O)[C@@H]4O)cccc31)c1cccc(O[C@@H]3O[C@H](CO)[C@@H](O)[C@H](O)[C@H]3O)c1C2=O | 2 | – | – | – | – | – | –
3 | NCCc1ccc(O)c(-c2c(O)c(O)c3c(c2O)C(=O)c2c(cc(O)c(C(=O)O)c2C(=O)O)C3=O)c1 | – | Active | 44 | – | – | – | –
4 | N[C@@H](Cc1ccc(O)c(-c2c(O)c(O)c3c(c2O)C(=O)c2c(cc(O)c(C(=O)O)c2C(=O)O)C3=O)c1)C(=O)O | – | Active | 8.1 | 19.2 | 43.9 | – | –
5 | CC(=O)NCCc1ccc(O)c(-c2c(O)c(O)c3c(c2O)C(=O)c2c(cc(O)c(C(=O)O)c2C(=O)O)C3=O)c1 [LACCACID ACID A] | – | Active | 64 | – | 39.5 | 0.3 | Not Active
